Results reported in ChEMBL document CHEMBL1145872, “Synthesis and in vitro efficacy of acid-sensitive poly(ethylene glycol) paclitaxel conjugates” (Bioorg Med Chem Lett, 2003).

What was measured:
Format in all cases: functional, cell-based
[1] = tested on: MCF7; test: In vitro inhibitory concentration of compound against human cancer MACL MCF-7 cell line was determined
[2] = tested on: MEXF514; test: In vitro inhibitory concentration of compound against human cancer MEXF 514 cell line was determined
[3] = tested on: RXF 944; test: In vitro inhibitory concentration of compound against human cancer RXF 944 cell line was determined

| IC50 [1] [nM] | IC50 [2] [nM] | IC50 [3] [nM] | Structure (SMILES) |
| --- | --- | --- | --- |
| 130 | 220 | 90 | CC(=O)O[C@H]1C(=O)[C@@]2(C)C([C@H](OC(=O)c3ccccc3)C3(O)C[C@H](OC(=O)[C@H](OC(=O)c4ccc(C(C)=O)cc4)[C@@H](NC(=O)c4ccccc4)c4ccccc4)C(C)=C1C3(C)C)[C@]1(OC(C)=O)COC1C[C@@H]2O (stereo not given in full) |
|  | 1030 | 50 | CC(=O)O[C@H]1C(=O)[C@@]2(C)[C@H]([C@H](OC(=O)c3ccccc3)[C@]3(O)C[C@H](OC(=O)[C@H](O)[C@@H](NC(=O)c4ccccc4)c4ccccc4)C(C)=C1C3(C)C)[C@]1(OC(C)=O)CO[C@@H]1C[C@@H]2O [PACLITAXEL] |
